# According to ChEMBL document CHEMBL4627305, “3,3-Difluoro-3,4,5,6-tetrahydropyridin-2-amines: Potent and permeable BACE-1 inhibitors” (Bioorg Med Chem Lett, 2020):
# How the values were obtained:
# [1] = Metabolic stability in dog liver microsomes assessed as intrinsic clearance; format: ADME, Canis lupus familiaris, Microsome; conditions: read-out: CLH
# Beta-secretase 1 [2] = target: T1, Beta-secretase 1 (Homo sapiens, UniProt P56817); assay: Inhibition of BACE1 (unknown origin) assessed as reduction in Abeta42 level by cell based assay
# T1 sequence (P56817 whole entry): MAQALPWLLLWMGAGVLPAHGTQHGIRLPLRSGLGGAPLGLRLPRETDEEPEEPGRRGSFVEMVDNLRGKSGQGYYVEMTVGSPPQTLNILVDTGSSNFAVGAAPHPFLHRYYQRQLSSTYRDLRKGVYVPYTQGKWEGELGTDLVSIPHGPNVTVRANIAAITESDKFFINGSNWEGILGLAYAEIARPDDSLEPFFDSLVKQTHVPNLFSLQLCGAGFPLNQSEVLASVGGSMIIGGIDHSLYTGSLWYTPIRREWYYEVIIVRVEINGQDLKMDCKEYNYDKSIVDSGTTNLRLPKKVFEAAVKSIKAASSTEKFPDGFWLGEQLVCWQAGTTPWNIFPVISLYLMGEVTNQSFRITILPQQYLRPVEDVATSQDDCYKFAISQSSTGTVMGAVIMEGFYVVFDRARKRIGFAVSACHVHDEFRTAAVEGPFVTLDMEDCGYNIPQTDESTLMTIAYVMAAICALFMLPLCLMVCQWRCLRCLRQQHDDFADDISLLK
# Beta-secretase 1 [3] = target: T1, Beta-secretase 1; assay: Inhibition of BACE1 (unknown origin)
# [4] = Metabolic stability in human liver microsomes assessed as intrinsic clearance; format: ADME, Microsome; conditions: read-out: CLH
# [5] = Dissociation constant, pKa of the compound; format: physicochemical
# Beta-secretase 2 = target: T2, Beta-secretase 2 (Homo sapiens, UniProt Q9Y5Z0); assay: Inhibition of BACE2 (unknown origin)
# T2 sequence (Q9Y5Z0 whole entry): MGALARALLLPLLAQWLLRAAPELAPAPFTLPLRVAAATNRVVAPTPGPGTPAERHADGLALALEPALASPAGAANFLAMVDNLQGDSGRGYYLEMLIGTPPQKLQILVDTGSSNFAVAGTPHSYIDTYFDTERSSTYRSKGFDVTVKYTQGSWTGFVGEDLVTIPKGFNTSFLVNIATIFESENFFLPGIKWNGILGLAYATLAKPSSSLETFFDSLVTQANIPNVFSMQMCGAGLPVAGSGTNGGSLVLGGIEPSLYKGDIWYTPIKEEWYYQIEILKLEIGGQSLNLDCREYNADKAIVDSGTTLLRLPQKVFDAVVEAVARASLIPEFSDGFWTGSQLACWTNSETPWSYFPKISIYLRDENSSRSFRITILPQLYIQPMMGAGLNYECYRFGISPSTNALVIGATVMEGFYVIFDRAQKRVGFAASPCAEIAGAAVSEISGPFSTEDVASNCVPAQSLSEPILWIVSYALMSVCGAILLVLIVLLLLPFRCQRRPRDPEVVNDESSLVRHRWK
# [6] = Efflux ratio of apparent permeability across basolateral to apical over apical to basolateral side in MDCK cells; format: ADME, cell-based, Canis lupus familiaris; conditions: dog
# [7] = target: Voltage-gated inwardly rectifying potassium channel KCNH2 (Homo sapiens, UniProt Q12809); assay: Inhibition of human ERG
# Sequence of Voltage-gated inwardly rectifying potassium channel KCNH2 (Q12809 whole entry): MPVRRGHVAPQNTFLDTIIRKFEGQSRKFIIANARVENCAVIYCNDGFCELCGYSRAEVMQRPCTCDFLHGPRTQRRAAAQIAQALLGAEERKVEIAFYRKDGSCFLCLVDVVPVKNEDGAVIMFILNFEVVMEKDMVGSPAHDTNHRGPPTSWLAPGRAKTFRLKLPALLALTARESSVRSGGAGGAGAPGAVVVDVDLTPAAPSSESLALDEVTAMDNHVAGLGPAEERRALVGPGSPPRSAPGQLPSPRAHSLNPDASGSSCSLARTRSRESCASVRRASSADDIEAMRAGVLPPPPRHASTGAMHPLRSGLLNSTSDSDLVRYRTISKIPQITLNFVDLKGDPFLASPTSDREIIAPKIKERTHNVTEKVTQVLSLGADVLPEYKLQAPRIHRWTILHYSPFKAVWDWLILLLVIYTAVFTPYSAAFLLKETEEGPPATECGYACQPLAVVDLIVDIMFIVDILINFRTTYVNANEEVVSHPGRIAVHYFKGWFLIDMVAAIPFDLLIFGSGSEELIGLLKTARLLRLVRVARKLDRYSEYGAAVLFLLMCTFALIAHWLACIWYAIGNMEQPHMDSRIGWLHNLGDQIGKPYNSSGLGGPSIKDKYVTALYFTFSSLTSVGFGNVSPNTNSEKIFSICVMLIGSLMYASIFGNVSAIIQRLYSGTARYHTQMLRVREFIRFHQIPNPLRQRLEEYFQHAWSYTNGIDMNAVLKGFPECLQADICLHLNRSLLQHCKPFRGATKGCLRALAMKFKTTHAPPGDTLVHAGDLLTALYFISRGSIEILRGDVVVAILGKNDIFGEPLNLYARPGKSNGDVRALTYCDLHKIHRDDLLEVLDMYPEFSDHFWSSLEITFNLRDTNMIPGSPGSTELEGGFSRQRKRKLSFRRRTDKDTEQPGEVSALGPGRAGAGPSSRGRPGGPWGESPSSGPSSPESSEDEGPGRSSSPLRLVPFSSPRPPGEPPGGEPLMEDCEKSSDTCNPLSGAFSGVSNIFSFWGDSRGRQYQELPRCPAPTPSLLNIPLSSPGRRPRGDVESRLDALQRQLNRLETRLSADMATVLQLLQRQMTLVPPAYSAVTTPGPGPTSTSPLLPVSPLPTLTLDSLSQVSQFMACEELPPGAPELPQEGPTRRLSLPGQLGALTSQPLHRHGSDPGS
# Cytochrome P450 2D6 = Cytochrome P450 2D6 (Homo sapiens, UniProt P10635); assay: Inhibition of CYP2D6 (unknown origin); format: ADME
# Sequence of Cytochrome P450 2D6 (P10635 whole entry): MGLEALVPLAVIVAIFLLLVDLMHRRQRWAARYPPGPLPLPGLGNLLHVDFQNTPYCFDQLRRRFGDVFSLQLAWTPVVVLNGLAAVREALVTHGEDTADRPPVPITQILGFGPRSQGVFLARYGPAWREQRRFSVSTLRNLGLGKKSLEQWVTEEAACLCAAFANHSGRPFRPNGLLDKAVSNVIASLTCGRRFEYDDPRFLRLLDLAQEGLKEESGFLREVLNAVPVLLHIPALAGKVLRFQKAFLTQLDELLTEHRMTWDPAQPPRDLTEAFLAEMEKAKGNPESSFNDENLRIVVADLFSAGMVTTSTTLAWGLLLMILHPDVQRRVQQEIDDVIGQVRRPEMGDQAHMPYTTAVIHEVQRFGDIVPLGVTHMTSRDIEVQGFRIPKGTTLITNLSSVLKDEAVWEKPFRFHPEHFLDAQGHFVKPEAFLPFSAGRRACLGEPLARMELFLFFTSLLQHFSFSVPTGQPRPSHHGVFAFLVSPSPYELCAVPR
# Homo sapiens = organism: Homo sapiens; assay: Selectivity index, ratio of IC50 for BACE2 (unknown origin) to IC50 for BACE1 (unknown origin)
Structure (SMILES),microsomal CLint [1] [µL/min/mg],IC50 (Beta-secretase 1 [2]) [nM],IC50 (Beta-secretase 1 [3]) [nM],microsomal CLint [4] [µL/min/mg],pKa [5],IC50 (Beta-secretase 2) [nM],efflux ratio [6],IC50 (Cytochrome P450 2D6) [µM],Ratio IC50 (Homo sapiens),IC50 [7] [µM]
NC1=N[C@](CF)(c2cc(NC(=O)c3cnc(OCF)cn3)ccc2F)CCC1(F)F,< 7.7,93.3,8.9,< 7.7,6.3,138,,,,
NC1=N[C@@]2(c3cc(NC(=O)c4cnc(OCF)cn4)ccc3F)COCC[C@H]2CC1(F)F (racemic),15.5,7.1,3.5,46.2,6.6,10.2,4.7,> 10,3,> 10
NC1=N[C@@]2(c3cc(NC(=O)c4cnc(OCF)cn4)ccc3F)CO[C@@H](CF)C[C@H]2CC1(F)F,< 7.7,4.8,2.5,24.9,6.4,8.9,12,> 10,3.6,> 10
C[C@H]1C[C@H]2CC(F)(F)C(N)=N[C@@]2(c2cc(NC(=O)c3cnc(OCF)cn3)ccc2F)CO1,18.6,3.5,1.5,119,6.6,6.8,5,> 10,4.5,> 10

# Further molecules by falling IC50 (Beta-secretase 1 [2]), results first:
microsomal CLint [1] [µL/min/mg],IC50 (Beta-secretase 1 [2]) [nM],IC50 (Beta-secretase 1 [3]) [nM],microsomal CLint [4] [µL/min/mg],pKa [5],IC50 (Beta-secretase 2) [nM],efflux ratio [6],IC50 (Cytochrome P450 2D6) [µM],Ratio IC50 (Homo sapiens),Structure (SMILES),IC50 [7] [µM]
11.8,170,79.4,35.3,6.7,1070,8.4,> 10,13.5,NC1=N[C@@]2(c3cc(NC(=O)c4cnc(OCF)cn4)ccc3F)CCOC[C@H]2CC1(F)F (racemic),> 10
10.2,16.2,11.5,10.1,7.6,126,2.1,1,11,C[C@@]1(c2cc(NC(=O)c3cnc(OCF)cn3)ccc2F)CCC(F)(F)C(N)=N1,> 10
